Experimental data: patent US20240324593A1, “OCTENIDINE COMPOSITIONS AND METHODS OF USE THEREOF” (Solventum Intellectual Properties Company, priority 2021, published 2024)
Structures can show the parent of a compound that is named as a salt.

Key:
[1] = Homogeneity of the composition / precipitation of octenidine; type: physicochemical; conditions: aqueous composition of octenidine hydrochloride with enhancer
Description: Water and the carnitine enhancer (i.e., carnitine inner salt, carnitine tartrate tartaric acid, carnitine fumarate, or acetyl carnitine) to a 20 mL glass vial mixed with magnetic stirring. Octenidine hydrochloride (10% solution in 50:50 weight percentage methanol:water) was further added in the amount described in the tables below. The pH was adjusted using 1N HCL or NaOH. Glycerol (3 g) and Natrosol 250 HHX […] were added to a flask and mixed with a DAC 400 FVZ SPEEDMIXER dual asymmetric centrifuge mixer (from Flacktek, Inc Landrum, S.C.) at 2500 rpm for 30 seconds. The glycerol and Natrosol 250 HHX (1.3 g) were combined with the enhancer solution in a 40 gms Flack Tec cup and mixed for an additional 30 seconds at 2500 rpm. The resulting solutions were homogenous. Refer to Examples 1-36 below (total weight percentages of octenidine hydrochloride and carnitine enhancer within composition are provided in tables; glycerol about 8-9 wt %; Natrosol 250 HHX about 2-3 wt %; and water makes up the difference). The solutions of Examples 1-27 below were subjected to antimicrobial testing according to the method below.
As described above, aqueous compositions including only octenidine hydrochloride and a respective enhancer were also prepared (i.e., absent glycerol and Natrosol 250 HHX), similar to the formulations described in Tables 1-5. All compositions formed homogenous solutions. […]

[2] = Antimicrobial Efficiency Test, other antimicrobials with carnitine enhancers (Table 5); type: cell-based; conditions: with versus without carnitine enhancer
Description: Solutions of water, carnitine enhancer, and various other antimicrobials (i.e., chlorhexidine gluconate, benzalkonium chloride, polyhexamethylene biguanide) were prepared according to the procedure described immediately above.
Ex vivo porcine mucosa is transported to laboratory on ice pack and then trimmed and transferred in to RPMI 1640+2% PS media. A 5 mm biopsy punch is used to cut samples for assay. Remove most of the remaining muscle tissue with a fresh scalpel blade. Rinse 3× with 10±0.5 ml RPMI no ABX, no FCS. Transfer to incubator. Set up a 6 well plate with 1.5±0.2 mL RPMI (no ABX, no FCS) in each well and a 0.4 μm transwell insert. Transfer tissue explants mucosal side up to the insert (3 explants/well).
Passage overnight culture 1:10 into THB and return to shaking incubator for 2-3 hours. Remove 1 mL of passage culture from test tube and place in sterile microcentrifuge tube. Centrifuge (1±0.5 min at max speed) to pellet. Wash pellet with 1±0.1 mL RPMI, no ABX, no FCS. Centrifuge to pellet and re-suspend in 1±0.1 mL fresh RPMI. Check OD 600 to determine bacterial density and dilute as necessary to achieve ˜1E8 CFU/ml. Add bacteria: 2±1 μl per explant and return to incubator to infect 4±0.15 h.
Apply 50± μl of formulation per explant (mucosa side). Incubate at 37±2° C. for 24±0.5 h.
Remove tissue from transwells and place in appropriate neutralizer. Sonicate samples and vortex (30±5 second vortex, 2±0.1 minutes sonicate, and then 30±5 second vortex). Plate on Mannitol Salt Agar selective agar or Blood Agar at appropriate dilution and store dilutions at 4±2° C. The following day count plates and if TNTC, re-plate at higher dilution.

[3] = background statement; cited from earlier work
[4] = background statement; cited from earlier work; remark: listed apart in the source
[5] = background statement; cited from earlier work; remark: listed apart in the source
[6] = background statement; cited from earlier work; remark: listed apart in the source

C[N+](C)(C)C[C@H](O)CC(=O)[O-].O=C(O)/C=C/C(=O)O [carnitine fumarate, L-Carnitine fumarate]
homogenous solution or precipitation of octenidine [1]: resulted in the precipitation of octenidine

N=C(NCCCCCCNC(=N)NC(=N)Nc1ccc(Cl)cc1)NC(=N)Nc1ccc(Cl)cc1.O=C(O)[C@H](O)[C@@H](O)[C@H](O)[C@H](O)CO.O=C(O)[C@H](O)[C@@H](O)[C@H](O)[C@H](O)CO [chlorhexidine gluconate]
antimicrobial activity in the presence of carnitine enhancers (in words) [2]: performed better in the absence of carnitine enhancer

CCCCCCCCN=c1ccn(CCCCCCCCCCn2ccc(=NCCCCCCCC)cc2)cc1 [octenidine, octenidine hydrochloride]
antimicrobial efficacy relative to chlorhexidine [3]: 3-10 times
absorption through skin or mucous membranes [4]: not absorbed
contact dermatitis [5]: does not cause contact dermatitis
cytotoxicity relative to chlorhexidine [6]: less cytotoxic than chlorhexidine

benzalkonium chloride
antimicrobial activity in the presence of carnitine enhancers (in words) [2]: No effect

polyhexamethylene biguanide [polyhexamethylene biguanidine]
antimicrobial activity in the presence of carnitine enhancers (in words) [2]: performed better in the absence of carnitine enhancer
